Legend:
[1] = Uncompetitive inhibition of pig PAP using para-nitrophenol as substrate at pH 4.9 preincubated for 10 mins by UV-visible spectrophotometry; parameters: species or system Sus scrofa
[2] = target: T1, Fe(3+)-Zn(2+) purple acid phosphatase (Phaseolus vulgaris, UniProt P80366); assay: Competitive inhibition of red kidney bean PAP using para-nitrophenol as substrate at pH 4.9 preincubated for 10 mins by UV-visible spectrophotometry
T1 sequence (P80366 whole entry): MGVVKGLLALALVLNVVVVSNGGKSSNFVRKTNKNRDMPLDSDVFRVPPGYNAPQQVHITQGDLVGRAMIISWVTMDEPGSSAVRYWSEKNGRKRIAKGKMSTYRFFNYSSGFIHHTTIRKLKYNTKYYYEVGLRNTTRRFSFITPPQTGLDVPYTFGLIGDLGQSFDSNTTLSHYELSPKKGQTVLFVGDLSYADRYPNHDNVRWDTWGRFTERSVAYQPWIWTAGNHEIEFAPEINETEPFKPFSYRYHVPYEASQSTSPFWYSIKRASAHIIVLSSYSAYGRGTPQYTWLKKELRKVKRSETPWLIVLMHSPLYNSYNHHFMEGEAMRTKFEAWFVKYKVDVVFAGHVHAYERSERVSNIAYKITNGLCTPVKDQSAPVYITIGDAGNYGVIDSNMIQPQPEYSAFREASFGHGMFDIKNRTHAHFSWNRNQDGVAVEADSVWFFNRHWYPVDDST

[3] = Competitive inhibition of pig PAP using para-nitrophenol as substrate at pH 4.9 preincubated for 10 mins by UV-visible spectrophotometry; parameters: species or system Sus scrofa
[4] = target: T1, Fe(3+)-Zn(2+) purple acid phosphatase; assay: Uncompetitive inhibition of red kidney bean PAP using para-nitrophenol as substrate at pH 4.9 preincubated for 10 mins by UV-visible spectrophotometry

Ki [1]	Ki [2]	Ki [3]	Ki [4]	SMILES
349 µM	222 µM	116 µM	446 µM	CCCCCCC(=O)NC(c1cccc2ccccc12)P(=O)(O)O (racemic)
1440 µM	238 µM	363 µM	654 µM	CCCC(=O)NC(c1cccc2ccccc12)P(=O)(O)O (racemic)
	31 µM	13 µM		CCCCCCCCCCCCCCCC(=O)NC(c1cccc2ccccc12)P(=O)(O)O (racemic)
	5 µM	21 µM		CCCCCCCCCCCC(=O)NC(c1cccc2ccccc12)P(=O)(O)O (racemic)
	195 µM	44 µM	443 µM	CCCCCCCC(=O)NC(c1cccc2ccccc12)P(=O)(O)O (racemic)
	11 µM	8 µM		CCCCCCCCCCCCCC(=O)NC(c1cccc2ccccc12)P(=O)(O)O (racemic)
	57 µM	10 µM	102 µM	CCCCCCCCCC(=O)NC(c1cccc2ccccc12)P(=O)(O)O (racemic)

Reference: ChEMBL document CHEMBL1770077, “Synthesis, modelling and kinetic assays of potent inhibitors of purple acid phosphatase” (Bioorg Med Chem Lett, 2011)
